Data as given in patent US20260285853A1, “COMPOUNDS AND METHODS FOR MODULATING SPLICING” (REMIX THERAPEUTICS INC., priority 2023, published 2026).
Counter-ions that a name gives are not always drawn. Like-named read-outs stand apart in the source and are kept apart here.

Columns and labels:
Format in all cases: cell-based
[1] = tested on: SH-SY5Y (human neuroblastoma) cells; test: Cell viability, Cell Titer Glo 2.0 assay; details: read-out: Viability SHSY5Y.3 GI50
Outline: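 Steps: serial DMSO dilution of compound, 1:100 dilution into medium, addition to cells (0.1% DMSO final). Incubate 72 h at 37 °C, 5% CO2. Assay with CellTiter-Glo 2.0 reagent.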

[2] = tested on: HTT mRNA; test: Gene panel canonical junction qPCR assay, decrease in CJ mRNA, Table 3
Outline: (§1)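 IC50 is the concentration giving 50% response in decrease of the canonical junction transcript, fitted with a 4-parameter logistic equation. Transcripts were quantified by RT-qPCR in A673 or K562 cells after 24 h exposure to compounds dosed up to 10 uM in 3-fold steps.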

[3] = tested on: MYB mRNA; test: as above
Outline: as §1

[4] = tested on: HTT mRNA; test: Splicing RT-qPCR assay (THP), Table 2A
[5] = tested on: MYB mRNA; test: Splicing RT-qPCR assay (THP), Table 2A
[6] = decrease in canonical junction (CJ) mRNA, gene panel qPCR, Table 3
[7] = Table 2A (THP), AJ mRNA increase, read-out: HTT AJ (increase in alternative junction mRNA, AC50)
[8] = Table 2A (THP), CJ mRNA decrease, read-out: HTT CJ (decrease in canonical junction mRNA, IC50)
[9] = Table 2A (THP), AJ mRNA increase, read-out: MYB AJ (increase in alternative junction mRNA, AC50)
[10] = Table 2A (THP), CJ mRNA decrease, read-out: MYB CJ (decrease in canonical junction mRNA, IC50)
[11] = decrease in CJ mRNA levels, canonical junction qPCR, gene panel
[12] = Table 2A, THP, HTT alternative junction (AJ) mRNA, read-out: HTT AJ (AC50, increase in alternative junction mRNA)
[13] = Table 2A, THP, HTT canonical junction (CJ) mRNA, read-out: HTT CJ (IC50, decrease in canonical junction mRNA)
[14] = Table 2A, THP, MYB alternative junction (AJ) mRNA, read-out: MYB AJ (AC50, increase in alternative junction mRNA)
[15] = Table 2A, THP, MYB canonical junction (CJ) mRNA, read-out: MYB CJ (IC50, decrease in canonical junction mRNA)

SMILES	GI50 [1]	IC50 [2, 6]	IC50 [3, 6]	IC50 [4, 8]	IC50 [5, 10]	IC50 [2, 11]	IC50 [3, 11]	IC50 [4, 13]	IC50 [5, 15]	AC50 [4, 7]	AC50 [5, 9]	AC50 [4, 12]	AC50 [5, 14]
Cn1cc2cc(NC(=O)c3ccc(N4CCC(NC5CC5)CC4)c4cn(C)nc34)cc(CNc3cncs3)c2n1 [Compound 882]	1000 to 10000 nM	–	–	–	–	> 10000 nM	100 to 1000 nM	> 10000 nM	100 to 1000 nM	–	–	> 10000 nM	100 to 1000 nM
Cc1cn2cc(NC(=O)c3ccc(N4CCC(NC5CC5)CC4)c4cn(C)nc34)nc2c(CCNS(C)(=O)=O)n1 [Compound 778]	> 10000 nM	–	–	–	–	> 10000 nM	> 10000 nM	> 10000 nM	> 10000 nM	–	–	> 10000 nM	> 10000 nM
CNC1CCC(Oc2ccc(C(=O)Nc3cn4cc(C)nc(C)c4n3)c3nn(C)cc23)C1 (stereo not shown) [Compound 594]	> 10000 nM	> 10000 nM	> 10000 nM	> 10000 nM	> 10000 nM	–	–	–	–	> 10000 nM	> 10000 nM	–	–
COc1nc2c(C(=O)Nc3cc(F)c4nn(C)cc4c3)ccc(N3C[C@H](C)N[C@@H](C)C3)c2o1 [Compound 682, 7-[(3S,5S)-3,5-dimethylpiperazin-1-yl]-N-(7-fluoro-2-methyl-indazol-5-yl)-2-methoxy-1,3-benzoxazole-4-carboxamide]	< 100 nM	–	–	–	–	100 to 1000 nM	< 100 nM	100 to 1000 nM	< 100 nM	–	–	100 to 1000 nM	< 100 nM
COc1c(NC(=O)c2ccc(N3CCC(NC4CC4)CC3)c3c2OCO3)cn2cc(C)nc2c1F [Compound 650, 7-[4-(cyclopropylamino)-1-piperidyl]-N-(8-fluoro-7-methoxy-2-methyl-imidazo[1,2-a]pyridin-6-yl)-1,3-benzodioxole-4-carboxamide]	100 to 1000 nM	–	–	–	–	< 100 nM	< 100 nM	< 100 nM	< 100 nM	–	–	100 to 1000 nM	< 100 nM
C=CCNC1CCN(c2ccc(C(=O)Nc3cc(CNC(=O)OC)c4nn(C)cc4c3)c3nn(C)cc23)CC1 [Compound 833]	1000 to 10000 nM	–	–	–	–	1000 to 10000 nM	100 to 1000 nM	1000 to 10000 nM	100 to 1000 nM	–	–	1000 to 10000 nM	100 to 1000 nM

More lines, main results first:

GI50 [1]	IC50 [2, 6]	IC50 [3, 6]	IC50 [4, 8]	IC50 [5, 10]	IC50 [2, 11]	IC50 [3, 11]	IC50 [4, 13]	IC50 [5, 15]	SMILES	AC50 [4, 7]	AC50 [5, 9]	AC50 [4, 12]	AC50 [5, 14]
100 to 1000 nM	> 10000 nM	100 to 1000 nM	> 10000 nM	100 to 1000 nM	–	–	–	–	COc1cc2nc(C)cn2cc1NC(=O)c1c(F)cc(N2CCC(NC3CC3)CC2)c2cn(C)nc12 [Compound 395, 4-[4-(cyclopropylamino)-1-piperidyl]-6-fluoro-N-(7-methoxy-2-methyl-imidazo[1,2-a]pyridin-6-yl)-2-methyl-indazole-7-carboxamide]	> 10000 nM	< 100 nM	–	–
< 100 nM	< 100 nM	< 100 nM	< 100 nM	< 100 nM	–	–	–	–	CCNC1CCN(c2cc(Cl)c(C(=O)Nc3cn4cc(C)nc4c(F)c3OC)c3nn(C)cc23)CC1 [Compound 335, 6-chloro-4-[4-(ethylamino)-1-piperidyl]-N-(8-fluoro-7-methoxy-2-methyl-imidazo[1,2-a]pyridin-6-yl)-2-methyl-indazole-7-carboxamide]	< 100 nM	< 100 nM	–	–
1000 to 10000 nM	> 10000 nM	< 100 nM	> 10000 nM	< 100 nM	–	–	–	–	CCNC1CCN(c2cc(F)c(C(=O)Nc3cn4cc(C)nc(C)c4c3F)c3nn(C)cc23)CC1 [Compound 468, 4-[4-(ethylamino)-1-piperidyl]-6-fluoro-N-(8-fluoro-1,3-dimethyl-pyrrolo[1,2-a]pyrazin-7-yl)-2-methyl-indazole-7-carboxamide]	> 10000 nM	< 100 nM	–	–
< 100 nM	< 100 nM	< 100 nM	< 100 nM	< 100 nM	–	–	–	–	CCNC1CCN(c2cc(F)c(C(=O)Nc3cn4cc(C)nc4c(F)c3OCC)c3nn(C)cc23)CC1 [Compound 343, N-(7-ethoxy-8-fluoro-2-methylimidazo [1,2-a]pyridin-6-yl)-4-(4-(ethylamino)piperidin-1-yl)-6-fluoro-2-methyl-2H-indazole-7-carboxamide hydrochloride]	< 100 nM	< 100 nM	–	–
